Assay results from publication PMC8152350, “High cytotoxicity of betulin towards fish and murine fibroblasts: Is betulin safe for nonneoplastic cells?” (BMC Veterinary Research, 2021).
Values after ≈ are worked out from the molar mass of the structure shown.

Assays:
T47D (breast cancer) = system: T47D (breast cancer); set-up: method as in PMID 23595090; settings: SRB assay; cited from earlier work
[1] = system: SW707 (colorectal adenocarcinoma); set-up: method as in PMID 23595090; settings: SW707, SRB assay; cited from earlier work
porcine chondrocytes [2] = settings: cited from earlier work
[3] = system: murine fibroblasts (Balb 3T3 line); set-up: method as in PMID 23595090; settings: Balb 3T3, incubation time not given; cited from earlier work
A375 (melanoma) = system: A375 (melanoma); set-up: method as in PMID 22627971, PMID 23379693; settings: A375, 20 µM; cited from earlier work
NB-1 = system: NB-1; set-up: method as in PMID 12697374; settings: NB-1 neuroblastoma; read-out: IC50 of betulin; cited from earlier work
NIH/3T3 cells [4] = test: LDH leakage assay (cellular membrane integrity), murine fibroblasts; type: cell-based, mouse; settings: NIH/3T3, 24 h
Procedure: (§1) All experiments were repeated three times.
(§2) The LDH assay measures leakage of the stable cytosolic enzyme lactate dehydrogenase into the culture medium, which is an indicator of irreversible cell membrane damage and cell death.
(§3) The LDH assay was performed using a commercially available kit (TOX7) (Sigma-Aldrich, Poland) according to the manufacturer’s protocol. The full description of the test procedure was also reported previously. The results obtained are reported as the percentage of LDH leakage to the culture media in control (nontreated) cells.

NIH/3T3 cells [5] = test: NRU assay (lysosomal membrane integrity), murine fibroblasts; type: cell-based, mouse; settings: NIH/3T3, beginning at 48 h
Procedure: as §1
(§4) The NRU assay evaluates lysosomal membrane integrity. It measures neutral red dye accumulation within lysosomes of viable cells.
(§5) The NRU assay was performed using a commercially available kit (TOX4) (Sigma-Aldrich, Poland) according to the manufacturer’s protocol. The full description of the test procedure was also provided in a published article.

[6] = as above; type: cell-based, mouse; settings: mouse, NIH/3T3 embryonic fibroblasts, n = 3
Procedure: as §1, §4, §5

BF-2 cells [7] = test: LDH leakage assay (cellular membrane integrity), fish fibroblasts; type: cell-based, bluegill; settings: BF-2, 24 h
Procedure: (§6) BF-2 (ATCC CCL-91) bluegill caudal trunk fibroblasts were grown in minimum essential medium (Eagle, EBSS) supplemented with 1 % nonessential amino acids (NEAAs), 10 % foetal bovine serum and 1 % antibiotic-antimycotic solution at 23 °C in a humidified atmosphere with 5 % CO2.
as §1, §2, §3

porcine chondrocytes [8] = settings: cited from earlier work; remark: listed apart in the source
Bcap-37 (breast cancer) = system: Bcap-37 (breast cancer); set-up: method as in PMID 22627971, PMID 23379693; settings: Bcap-37, 20 µM; cited from earlier work
A-549 = system: A-549; set-up: method as in PMID 16787747; settings: read-out: IC50 of betulin; cited from earlier work
[9] = system: B16 cells (B164A5 and B16F10); set-up: method as in PMID 25756279; settings: 150 µM betulin; cited from earlier work
CCRF/CEM (leukaemia) = system: CCRF/CEM (leukaemia); set-up: method as in PMID 23595090; settings: MTT assay; cited from earlier work
[10] = system: human skin fibroblasts (WS1); set-up: method as in PMID 16787747; settings: WS1, resazurin reduction test, 48 h, cited from earlier work
[11] = system: veterinary pathogens, both bacterial and viral; test: Antimicrobial activity towards veterinary pathogens (data not shown)
[12] = system: human lung fibroblasts (WI 38); set-up: method as in PMID 12697374; settings: WI 38, trypan blue exclusion, 72 h, cited from earlier work
P388 (murine leukaemia) = system: P388 (murine leukaemia); set-up: method as in PMID 23595090; settings: P388, MTT assay; cited from earlier work
SK-MEL-28 = system: SK-MEL-28; set-up: method as in PMID 12697374; settings: SK-MEL-28 melanoma; read-out: IC50 of betulin; cited from earlier work
BF-2 cells [13] = test: MTT assay (mitochondrial activity), fish fibroblasts; type: cell-based, bluegill; settings: fish cells
Procedure: as §6, §1

[14] = as above; type: cell-based, bluegill; settings: bluegill, BF-2 caudal trunk fibroblasts, mean ± SD, n = 3
Procedure: as §6, §1

DLD-1 = system: DLD-1; set-up: method as in PMID 16787747; settings: read-out: IC50 of betulin; cited from earlier work
MCF-7 (breast cancer) = system: MCF-7 (breast cancer); set-up: method as in PMID 22627971, PMID 23379693; settings: MCF-7, 20 µM; cited from earlier work

For `C=C(C)[C@@H]1CC[C@]2(CO)CC[C@]3(C)[C@H](CC[C@@H]4[C@@]5(C)CC[C@H](O)C(C)(C)[C@@H]5CC[C@]43C)[C@@H]12` [betulin, Betulin], the IC50 of betulin (T47D (breast cancer)) is listed as 32.4 µg/mL, the IC50 of betulin [1] is listed as 22.9 µg/mL and the “betulin concentration causing considerable decrease in viability (MTT)” value (porcine chondrocytes [2]) is listed as 0.02 µg/mL. The “IC50 of betulin (SRB)” value [3] was 47.3 µg/mL, the “inhibitory activity of betulin” value (A375 (melanoma)) was 33.9% and the IC50 (NB-1) was 16.5 µM. The “betulin concentration inducing substantial LDH leakage” value (NIH/3T3 cells [4]) was 7.8 µg/mL, the “betulin concentration causing considerable decrease in viability (NRU)” value (NIH/3T3 cells [5]) was at least 3.9 µg/mL and the CC50 at 24 h ([6]; NIH/3T3, 24 h, read-out: CC50 betulin NRU 24 h) was over 15.6 µg/mL. The CC50 at 48 h ([6]; NIH/3T3, 48 h, mean ± SD, read-out: CC50 betulin NRU 48 h) was 7.33 ± 2.94 µg/mL (≈ 16.6 µM), the CC50 at 72 h ([6]; NIH/3T3, 72 h, mean ± SD, read-out: CC50 betulin NRU 72 h) was 13 ± 2.94 µg/mL (≈ 29.3 µM) and the “betulin concentration inducing substantial LDH leakage” value (BF-2 cells [7]) was 7.8 µg/mL. For the same compound, the “betulin concentrations not affecting integrity of the cytoplasmic membrane (LDH)” value (porcine chondrocytes [8]) was “up to 5.12 µg/mL”, the “inhibitory activity of betulin” value (Bcap-37 (breast cancer)) was 53.2% and the IC50 (A-549) was 3.8 µM. The “trypan blue exclusion capacity” value [9] was 60%, the IC50 of betulin (CCRF/CEM (leukaemia)) was 10.9 µg/mL and the “IC50 of betulin, converted” value ([10]; conversion of µM value) was “ca. 1.6 µg/ml”. The IC50 ([10]; read-out: IC50 of betulin) was 3.58 µM, the “antimicrobial activity towards tested veterinary pathogens” value [11] was “did not confirm the antimicrobial activity” and the “IC50 of betulin, converted” value ([12]; conversion of µM value) was “ca. 6.75 µg/ml”. The IC50 ([12]; read-out: IC50 of betulin) was 15.2 µM, the IC50 of betulin (P388 (murine leukaemia)) was 5.5 µg/mL and the IC50 (SK-MEL-28) was 16.2 µM. For the same compound, the “betulin concentration causing statistically significant decrease in viability (MTT)” value (BF-2 cells [13]; 24 h) was at least 1.95 µg/mL, the “lower betulin concentration causing considerable decrease in viability (MTT)” value (BF-2 cells [13]; starting at 48 h of incubation) was 0.976 µg/mL and the CC50 at 24 h ([14]; BF-2, 24 h, read-out: CC50 betulin MTT 24 h) was 3.39 ± 0.903 µg/mL (≈ 7.67 µM). The CC50 at 48 h ([14]; BF-2, 48 h, read-out: CC50 betulin MTT 48 h) was 2.75 ± 1.05 µg/mL (≈ 6.21 µM), the CC50 at 72 h ([14]; BF-2, 72 h, read-out: CC50 betulin MTT 72 h) was 3.02 ± 1.03 µg/mL (≈ 6.82 µM) and the IC50 (DLD-1) was 6.6 µM. The “inhibitory activity of betulin” value (MCF-7 (breast cancer)) was 53.2%.
